Reference: US20240343762A1, “USE OF PROTON PUMP MODULATOR IN PREPARING REAGENT” (SHANGHAI QUIETD BIOTECHNOLOGY CO. LTD., priority 2021, published 2024)

System: SH-SY5Y cells
Assay: Rotenone cell model (PD) with immunoblotting of α-synuclein oligomer
Assay type: cell-based
Settings: 5 μM rotenone, QD202 at 0.1 μM, 0.2 μM, 0.5 μM and 1 μM, 24 hours
Procedure: The rotenone cell model is a commonly used Parkinson's disease (PD) in vitro cell model.
SH-SY5Y cells are cultured in complete medium composed of high-glucose DMEM and 10% fetal bovine serum, placed in an incubator maintained at 37° C. and 5% carbon dioxide for culture. On the day before the rotenone model is established, cells are passaged from 60 mm dishes to 6-well plates, and QD202 treatment experiments are conducted 24 hours after cell passage.
After 24 hours of SH-SY5Y culture, the rotenone model is established. A mixed solution containing 5 μM rotenone and various concentrations of QD202 (0, 0.1 μM, 0.2 μM, 0.5 μM, 1 μM, 5 μM, 10 μM) is prepared with complete medium. SH-SY5Y cells are removed from the culture medium, the mixed solution is added and mixed well, and incubated in the incubator for 24 hours.
After 24 hours of QD202 treatment, the cells are placed on ice, and 200 μL of cell lysis buffer containing protease inhibitors (25 mM Tris-HCL, 150 mM NaCl, 1 mM EDTA, 1% NP40, 5% Glycerol) is added. The cells are collected into the lysis buffer and the collected samples are rotated and lysed at 4° C. for 30 minutes.
The samples are centrifuged at 4° C. for 10 minutes, and the supernatant is collected. 180 μL of the supernatant is retained and 60 μL of 4×loading buffer is added. […]

QD202: polypeptide synthesized according to the amino acid sequence as set forth in SEQ ID NO. 1 (YGRKKRRQRRRSPVDVVCS; QD202)
increase in α-synuclein oligomer caused by rotenone treatment: dose-dependently reduce
